The molecules below were run against T1, FPRL-1 (Homo sapiens, UniProt P25090) (assay: FPRL-1 Ga16-CHO compound-induced calcium activity (FLIPR Tetra)). Conditions: CHO-Gα16 cells stably expressing FPRL1; calcium activity on FLIPR Tetra; tested at 0.61 to 10,000 nM; read-out: FPRL-1 Ga16-CHO EC50.
T1 construct: expressed in transfected cells; host or cells: CHO-Gα16 cells stably expressing FPRL1
T1 sequence (P25090 1-351): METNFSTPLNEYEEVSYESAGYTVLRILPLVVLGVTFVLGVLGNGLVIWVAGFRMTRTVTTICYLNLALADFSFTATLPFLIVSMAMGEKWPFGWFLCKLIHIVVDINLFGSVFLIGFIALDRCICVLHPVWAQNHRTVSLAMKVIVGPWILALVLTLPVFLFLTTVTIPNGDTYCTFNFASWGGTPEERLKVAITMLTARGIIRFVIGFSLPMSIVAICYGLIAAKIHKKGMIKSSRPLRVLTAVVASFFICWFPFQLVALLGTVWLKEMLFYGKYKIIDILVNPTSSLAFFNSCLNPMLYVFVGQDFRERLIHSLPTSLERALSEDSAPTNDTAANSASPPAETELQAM
Format: cell-based
Procedure: HEK-Gα16 and CHO-Gα16 cells stably expressing FPRL1 were cultured in (F12, 10% FBS, 1% PSA, 400 μg/ml geneticin and 50 μg/ml hygromycin) and HEK-Gqi5 cells stable expressing FPR1 were cultured in (DMEM high glucose, 10% FBS, 1% PSA, 400 μg/ml geneticin and 50 μg/ml hygromycin). In general, the day before the experiment, 18,000 cells/well were plated in a 384-well clear bottom poly-d-lysine coated plate. The following day the screening compound-induced calcium activity was assayed on the FLIPR^Tetra. The drug plates were prepared in 384-well microplates using the EP3 and the MultiPROBE robotic liquid handling systems. Compounds were tested at concentrations ranging from 0.61 to 10,000 nM. Results are expressed as EC50 (nM) and efficacy values.

EC50	Structure (SMILES)
0.0035 µM	Cc1ccc(CCC2(C)NC(=O)N(NC(=O)Nc3ccc(Br)cc3)C2=O)o1 (centres unmarked) [Compound 46, 1-(4-Bromophenyl)-3-(4-methyl-4-(2-(5-methylfuran-2-yl)ethyl)2,5-dioxoimidazolidin-1-yl)urea]
0.114 µM	CC1(Cc2c[nH]c3ccccc23)NC(=O)N(NC(=O)Nc2ccc(Br)cc2)C1=O (centres unmarked) [Compound 64, 1-(4-Bromophenyl)-3-[4-(1H-indol-3-ylmethyl)-4-methyl-2,5-dioxoimidazolidin-1-yl]urea]
0.0239 µM	O=C(Nc1ccc(Br)cc1F)NN1C(=O)NC2(CCCC2)C1=O [Compound 11, 1-(4-Bromo-2-fluorophenyl)-3-(2,4-dioxo-1,3-diazaspiro[4.4]nonan-3-yl)urea]
0.0221 µM	CC1(COc2ccccc2)NC(=O)N(NC(=O)Nc2ccc(Br)cc2)C1=O (centres unmarked) [Compound 25, 1-(4-Bromophenyl)-3-(4-methyl-2,5-dioxo-4-(phenoxymethyl)imidazolidin-1-yl)urea]
0.21 µM	CC1(CCc2ccc(C(=O)O)cc2)NC(=O)N(NC(=O)Nc2ccc(Br)cc2)C1=O (centres unmarked) [Compound 77, 4-(2-(1-(3-(4-Bromophenyl)ureido)-4-methyl-2,5-dioxoimidazolidin-4-yl)ethyl)benzoic acid]
0.149 µM	CCC1(CC)NC(=O)N(NC(=O)Nc2ccc(Cl)c(F)c2)C1=O [Compound 19, 1-(4-Chloro-3-fluorophenyl)-3-(4,4-diethyl-2,5-dioxoimidazolidin-1-yl)urea]
0.0864 µM	CC(C)CC1(CCc2ccccc2)NC(=O)N(NC(=O)Nc2ccc(Br)cc2)C1=O (centres unmarked) [Compound 31]
0.0398 µM	CC1(CCc2ccco2)NC(=O)N(NC(=O)Nc2ccc(Br)cc2F)C1=O (centres unmarked) [Compound 36]
